Measured values: US11761045B2, “Splice variants associated with neomorphic SF3B1 mutants” (Eisai R&D Management Co., Ltd., priority 2015, dated 2023)

Columns and labels:
[1] = system: SF3B1^WT CLL patient samples; assay: Splicing inhibition in CLL patient samples in vitro by RNA-Seq; type: cell-based, human; settings: 10 nM, 6 hours
Experimental: (§1) The ability of E7107 to inhibit splicing in CLL patient samples in vitro was determined by isolating RNA from samples of E7107-treated patient cells treated for 6 hours with E7107 at 10 nM and performing RNA-Seq analysis. To do so, cells were washed with PBS after treatment with E7107, and RNA was isolated using PureLink (Life Technology) as reported in the manufacturer's manual. cDNA library preparation, sequencing and raw read filtering was performed as described in Ren, S. et al. “RNA-Seq analysis of prostate cancer in the Chinese population identifies recurrent gene fusions, cancer-associated long noncoding RNAs and aberrant alternative splicings.” Cell Res 22, 806-821, doi:10.1038/cr.2012.30 (2012).

[2] = system: neomorphic SF3B1^MUT CLL patient samples; assay: as above; type: cell-based, human; settings: 10 nM, 6 hours
Experimental: as §1

[3] = target: SF3B1^WT (Homo sapiens, UniProt O75533+Q7RTV0); assay: In vitro splicing assay (IVS), Ad2 pre-mRNA substrate, nuclear extracts; type: biochemical; set-up: expressed in transfected cells; host or cells: nuclear extract of 293F cells transfected with pFLAG-CMV-2-SF3B1 (the same assay was also run with Nalm-6 nuclear extract); settings: nuclear extracts from Nalm-6 (SF3B1^WT) cells or 293F cells expressing Flag-tag SF3B1^WT
Experimental: E7107 is a small-molecule compound that inhibits splicing by targeting the U2 snRNP-associated complex SF3B (Kotake, Y. et al. “Splicing factor SF3b as a target of the antitumor natural product pladienolide.” Nat Chem Biol 3, 570-575, doi:10.1038/nchembio.2007.16 [2007]).
Nuclear extracts were prepared from 293F cells transfected with pFLAG-CMV-2-SF3B1 plasmids, or from isogenic Nalm-6 cells (SBH Sciences). The plasmids were generated by cloning the mxSF3B1 gene into the HindIII and KpnI sites of pFLAG-CMV2 (Sigma), and the mutations mxSF3B1^K700E, mxsF3B1^R1074H and mxSF3B1^K700E-R1074H were introduced using […]. Cell pellets were resuspended in hypotonic buffer (10 mM HEPES pH 7.9, 1.5 mM MgCl2, 10 mM KCl, 0.2 mM PMSF, and 0.5 mM DTT; for Nalm-6 cells, 40 mM KCl was used). The suspension was brought up to a total of five packed cell volumes (PCV). After centrifugation, the supernatant was discarded, and the cells were brought up to 3 PCV with hypotonic buffer, and incubated on ice for 10 minutes. Cells were lysed using a dounce homogenizer and then centrifuged. […] Protein concentration was determined using NanoDrop 8000 UV-Vis spectrophotometer (Thermo Scientific). […]

CC[C@H](O)[C@@H](C)[C@H]1O[C@@H]1C[C@@](C)(O)/C=C/C=C(\C)[C@H]1OC(=O)C[C@H](O)CC[C@@](C)(O)[C@@H](OC(=O)N2CCN(C3CCCCCC3)CC2)/C=C/[C@@H]1C [Compound E7107]
expression of canonical splice isoforms [1]: inhibited the expression of canonical splice isoforms
expression of canonical splice isoforms [2]: inhibited the expression of canonical splice isoforms
aberrant splicing ([2]; all samples carrying neomorphic SF3B1 mutations): able to modulate aberrant splicing
inhibition of splicing of Ad2 pre-mRNA in nuclear extracts [3]: able to inhibit splicing
